According to ChEMBL document CHEMBL5390252, “Imidazo[2,1-b]thiazole based indoleamine-2,3-dioxygenase 1 (IDO1) inhibitor: Structure based design, synthesis, bio-evaluation and docking studies” (Bioorg Med Chem Lett, 2023):

Tests used:
[1] = target: T1, Indoleamine 2,3-dioxygenase 1 (Homo sapiens, UniProt P14902); assay: Inhibition of human IDO1 using L-tryptophan as substrate assessed as reduction in N-formyl kynurenine formation by UV-visible spectroscopic analysis
Target sequence in this assay (P14902 whole entry): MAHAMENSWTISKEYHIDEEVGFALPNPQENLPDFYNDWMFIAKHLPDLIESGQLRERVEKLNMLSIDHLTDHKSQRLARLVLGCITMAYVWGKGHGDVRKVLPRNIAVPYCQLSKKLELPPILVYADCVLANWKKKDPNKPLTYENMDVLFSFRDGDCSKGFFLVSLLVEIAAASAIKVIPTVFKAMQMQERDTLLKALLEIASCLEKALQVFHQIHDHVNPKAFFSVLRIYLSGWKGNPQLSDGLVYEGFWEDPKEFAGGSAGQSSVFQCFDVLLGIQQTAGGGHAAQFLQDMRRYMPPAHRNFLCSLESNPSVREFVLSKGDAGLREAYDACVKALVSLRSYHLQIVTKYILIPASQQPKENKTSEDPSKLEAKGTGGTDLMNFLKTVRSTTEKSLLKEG

[2] = Cytotoxicity against HEK293 cells assessed as cell viability at 10 to 100 uM measured after 24 hrs by alamar blue assay relative to control; format: toxicity, cell-based; conditions: human, dose 10-100 µM, read-out: Activity
[3] = target: T1, Indoleamine 2,3-dioxygenase 1; assay: Inhibition of human IDO1 using L-tryptophan as substrate assessed as reduction in N-formyl kynurenine formation at 200 uM by UV-visible spectroscopic analysis relative to control
Target sequence in this assay (P14902 whole entry, looked up): as the sequence (P14902 whole entry) above

[4] = target: T1, Indoleamine 2,3-dioxygenase 1; assay: Inhibition of human IDO1 using L-tryptophan as substrate assessed as reduction in N-formyl kynurenine formation by measuring inhibition constant by UV-visible spectroscopic analysis
Target sequence in this assay (P14902 whole entry): as above

[5] = target: T1, Indoleamine 2,3-dioxygenase 1; conditions: dose 1.0 mM
Target sequence in this assay (P14902 whole entry, looked up): as the sequence (P14902 whole entry) above

[6] = system: HEK293; assay: Cytotoxicity against HEK293 cells assessed as reduction in cell viability at 100 uM measured after 24 hrs by alamar blue assay relative to control; format: toxicity, cell-based; conditions: human, hek293, 24 h
[7] = Cytotoxicity against HEK293 cells assessed as cell viability at 10 to 50 uM measured after 24 hrs by alamar blue assay relative to control; format: toxicity, cell-based; conditions: human, dose 10-50 µM, read-out: Activity

Work on `COc1ccc(-c2nc3sccn3c2NCCN2CCOCC2)cc1O` yielded an IC50 [1] of 73 µM.

Molecule `CC(C)(C)Nc1c(-c2ccncc2)nc2sccn12` has an IC50 [1] of 908 µM.

`COc1ccc(-c2nc3sccn3c2NC(C)(C)C)cc1O` gave an IC50 [1] of 13 µM and a viability at 24 h, up to 100 µM [2] of 100%.

Molecule `CC(C)(C)CC(C)(C)Nc1c(-c2ccccc2)nc2sccn12` has an IC50 [1] of 465 µM.

`COc1ccc(-c2nc3cc(C)ccn3c2NC(C)(C)C)cc1O` gave an IC50 [1] of 287 µM.

Molecule `CC(C)(C)CC(C)(C)Nc1c(-c2ccc(-c3ccccc3)cc2)nc2sccn12` has an IC50 [1] of 47 µM.

Work on `CC(C)(C)CC(C)(C)Nc1c(-c2ccc(C(F)(F)F)cc2)nc2sccn12` yielded an IC50 [1] of 1020 µM.

Molecule `COc1cccc(-c2nc3sccn3c2NC(C)(C)C)c1` has an IC50 [1] of 281 µM.

Work on `C[C@H]1c2[nH]c3ccccc3c2C[C@]2(C)C(=O)N(C)C(=S)N12` yielded an inhibition [3] of 29%.

In the case of `COc1ccc(-c2nc3sccn3c2NC(C)(C)CC(C)(C)C)cc1O`, the IC50 [1] is reported as 25 µM.

`CCNCCc1c[nH]c2c1C(=O)C(c1cccnc1)=CC2=O` gave a Ki [4] of 0.16 µM.

Molecule `CC(C)(C)CC(C)(C)Nc1c(-c2cccc(C#N)c2)nc2sccn12` has an IC50 [1] of 477 µM.

With `Cc1n[nH]c2c1[C@@H](c1ccc(F)c(F)c1)c1c(N)n[nH]c1O2` the IC50 [1] was 0.151 µM.

Work on `O=S(=O)(Nc1cccc2cnccc12)c1ccc2c(c1)OCCO2` yielded an IC50 [1] of 0.056 µM.

`CC(C)(C)Nc1c(-c2ccc3c(c2)OCO3)nc2sccn12` gave an IC50 [1] of 1450 µM.

In the case of `CC(C)(C)Nc1c(-c2ccccc2)nc2sccn12`, the IC50 [1] is reported as 43 µM.

In the case of `O=C(Cc1ccccc1)Nc1ccc(CCOc2ccccc2-c2cnc[nH]2)cc1`, the IC50 [1] is reported as 0.028 µM.

`CC(C)(C)CC(C)(C)Nc1c(-c2ccncc2)nc2sccn12` gave an IC50 [1] of 691 µM.

For `c1ccc2c(c1)[nH]c1cnccc12`, the inhibition [5] was 17%.

Work on `c1ccc(-c2ccc(-c3nc4sccn4c3NCCN3CCOCC3)cc2)cc1` yielded an IC50 [1] of 106 µM.

With `O[C@H](c1c(C2CC2)c(Cl)cc2cncn12)C1CC2CCC1CC2` (stereo partly specified) the IC50 [1] was 0.0096 µM.

Molecule `CC(C)(C)Nc1c(-c2ccc(C(F)(F)F)cc2)nc2sccn12` has an IC50 [1] of 1290 µM.

With `CC(C)(C)Nc1c(-c2ccc(-c3ccccc3)cc2)nc2sccn12` the IC50 [1] was 23 µM, the Activity [6] was ~ 85% and the viability at 24 h, up to 50 µM [7] was 100%.
